Positions count from the first letter of the chain named.
Key:
WT mouse TRPV3 = target: T1, WT mouse TRPV3 (Mus musculus, UniProt Q8K424); assay type: cell-based
T1 construct: expressed in transfected cells; host or cells: Xenopus laevis oocytes (cRNA injection, pGEM-HE vector)
T1 sequence (Q8K424 1-791): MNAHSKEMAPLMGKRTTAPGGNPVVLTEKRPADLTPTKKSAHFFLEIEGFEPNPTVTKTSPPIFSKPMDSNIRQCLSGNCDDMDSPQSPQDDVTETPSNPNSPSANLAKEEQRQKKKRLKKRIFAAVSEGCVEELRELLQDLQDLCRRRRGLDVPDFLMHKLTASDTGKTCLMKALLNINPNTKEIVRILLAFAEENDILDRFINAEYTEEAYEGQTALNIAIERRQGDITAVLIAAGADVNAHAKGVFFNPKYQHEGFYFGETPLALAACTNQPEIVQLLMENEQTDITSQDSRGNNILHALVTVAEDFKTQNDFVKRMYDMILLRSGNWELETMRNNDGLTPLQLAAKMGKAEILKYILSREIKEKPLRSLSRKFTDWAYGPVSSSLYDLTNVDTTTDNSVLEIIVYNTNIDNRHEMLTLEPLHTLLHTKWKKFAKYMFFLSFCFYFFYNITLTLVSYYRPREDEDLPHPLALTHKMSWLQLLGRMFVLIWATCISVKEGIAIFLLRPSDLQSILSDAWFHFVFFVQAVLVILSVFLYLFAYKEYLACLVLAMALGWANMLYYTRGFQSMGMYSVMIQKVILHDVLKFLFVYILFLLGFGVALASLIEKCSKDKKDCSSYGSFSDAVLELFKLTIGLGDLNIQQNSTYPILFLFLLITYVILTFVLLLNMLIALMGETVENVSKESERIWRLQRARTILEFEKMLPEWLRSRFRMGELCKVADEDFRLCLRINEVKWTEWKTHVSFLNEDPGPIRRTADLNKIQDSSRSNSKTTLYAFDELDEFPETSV
Method: (§1) All channel constructs were expressed in Xenopus laevis oocytes and studied using the two-electrode voltage clamp technique (TEVC) following 1–4 days of incubation after cRNA injection. The animal care and experimental procedures were performed in accordance with the Guide for the Care and Use of Laboratory Animals and were approved by the Animal Care and Use Committee of the National Institute of Neurological Disorders and Stroke (Animal protocol number 1253–17). Oocytes were removed surgically and incubated with agitation for 1 hr in a solution containing (in mM) 82.5 NaCl, 2.5 KCl, 1 MgCl2, 5 HEPES, pH 7.6 (with NaOH), and collagenase (2 mg/ml; Worthington Biochemical, Lakewood, NJ). Defolliculated oocytes were injected with cRNA for each of the constructs and incubated at 17°C in a solution containing (in mM) 96 NaCl, 2 KCl, 1 MgCl2, 1.8 CaCl2, 5 HEPES, pH 7.6 (with NaOH), and gentamicin (50 μg/ml, GIBCO-BRL, Gaithersburg, MD). Oocyte membrane voltage was controlled using an OC-725C oocyte clamp (Warner Instruments, Hamden, CT). Data were filtered at 1–3 kHz and digitized at 20 kHz using pClamp software (Molecular Devices, Sunnyvale, CA) and a Digidata 1440A digitizer (Axon Instruments). Microelectrode resistances were 0.1–1 MΩ when filled with 3 M KCl. For recording TRP channel currents, the external recording solution contained (in mM) 100 KCl, 10 HEPES, pH 7.6 (with KOH). Experiments were performed at room temperature (~22°C), except as indicated otherwise. […] Current time courses were obtained by stepping membrane voltage every 2 s from a holding potential of 0 mV to either −60 or +60 mV for 100 ms, and plotting the mean steady-state current at the end of each voltage step as a function of total recording time. I-V relations were obtained similarly, but voltage was stepped every 2 s to a different value, in 10 mV increments and starting at −60 mV.
(§2) For temperature-activation experiments, calcium-activated chloride currents were minimized by using calcium-free solution containing 30 µM Caccinh-A01 and recording at negative membrane voltages. Heat stimuli were achieved by passing the external recording solution through glass capillary spirals immersed in a water bath maintained at about 70°C, and recordings were performed during constant perfusion with temperature measured using a thermistor (TA-29, Warner Instruments) located close to the cell. The thermistor was connected to the digitizer via a temperature controller (TC-324B, Warner Instruments) ([Zhang et al., 2018]). Oocytes injected with the various constructs were only studied if un-injected oocytes from the same batch contained a low density of endogenous temperature-sensitive currents at negative membrane voltages. For delivering cold stimuli, the external solution was passed through glass capillary spirals that were immersed in an ice bath. The mean I vs T relations were calculated by automatically binning each of the recordings in temperature intervals of 2°C, and averaging a single data point within each interval per cell. All data analysis was carried out using Igor Pro 6.3 (Wavemetrics, Portland, OR). Q10 values were obtained from Q10 = 10^10 x m, where m is the slope of linear fits to normalized log(current) vs temperature relations (not shown) over temperature intervals ~ 20–34°C or 38 – 45°C ([Zhang et al., 2018]).

mouse TRPV3-6M = target: T2, mouse TRPV3-6M (Mus musculus, UniProt Q8K424, A560T/F522S/H523E/L557M/Q580E/W521Y); assay type: cell-based; settings: for channel activation (current response): RTx 100 nM, 2-APB 3 mM, room temperature, ±60 mV
T2 construct: expressed in transfected cells; host or cells: Xenopus laevis oocytes
T2 sequence (Q8K424 1-791 W521Y/F522S/H523E/L557M/A560T/Q580E): T1 sequence (Q8K424 1-791) with W521Y, F522S, H523E, L557M, A560T, Q580E
Method: as §1, §2

Compound | channel activation (current response) (WT mouse TRPV3; 2-APB 3 mM, room temperature) | s (slope) of Hill fit, 2-APB concentration-response (WT mouse TRPV3; -60 mV) | EC50 (WT mouse TRPV3; -60 mV, room temperature, Hill fit, read-out: apparent affinity (EC50) for activation by 2-APB) | channel activation (current response) (mouse TRPV3-6M) | channel activation by RTx after 2-APB pre-stimulation (WT mouse TRPV3; RTx 100 nM after short stimulation with 2-APB (3 mM)) | channel activation by RTx together with heating (WT mouse TRPV3; RTx 100 nM with heating) | channel activation by RTx after 2-APB pre-stimulation (mouse TRPV3-6M; RTx 100 nM after short stimulation with saturating 2-APB (3 mM)) | channel activation by RTx together with heating (mouse TRPV3-6M; RTx 100 nM with short heating pulse, temperatures slightly above room temperature)
NCCOB(c1ccccc1)c1ccccc1 [2-APB, 2-aminoethoxydiphenyl borate] | robust responses | 2.63 | 464 ± 12 µM | robust responses | – | – | – | –
C=C(C)[C@]12C[C@@H](C)[C@@]34O[C@](Cc5ccccc5)(O[C@@H]1[C@@H]3C=C(COC(=O)Cc1ccc(O)c(OC)c1)C[C@]1(O)C(=O)C(C)=C[C@@H]41)O2 [RTx, resiniferatoxin] | – | – | – | insensitive | did not activate | did not elicit any response | robust activation | prominent activation
